Source: patent US20150010502A1, “Compositions and Methods for Suppressing Gene Expression of p53 and Clusterin” (priority 2011, published 2015)
e = 2'-O-(2-methoxyethyl) (MOE); d = 2'-deoxy (DNA)

Key:
[1] = system: clusterin; conditions: cited from earlier work
[2] = system: U2OS cells (osteosarcoma); test: U2OS cells treated with PMO, Dox followed by Go6976: cell cycle and caspase 3 assay (FIG. 4); format: cell-based; conditions: PMO 3 uM 2 h, Dox 200 ng/ml 24 h, +/- Go6976 100 nM 24 h
Protocol: FIG. 4 is a graph showing the results obtained with U2OS cells treated with PMO (3 uM, 2 h), Dox (200 ng/ml, 24 h) followed by Go6976 (100 nM, 24 h).
(§1) In further studies, additional agents were tested in conjunction with p53 morpholinos. […] We also tested these agents on U2OS cells (osteosarcoma). Again a dramatic effect on cell cycle that is dependent on PMOs and Go is observed. PMOs give a 3-fold enhancement of drug sensitivity in the caspase 3 assay. We also assessed U2OS cells treated with PMOs (p53-A and p53-B) +/−cisplatin+/−Go6976.

[3] = system: U2OS cells (osteosarcoma); test: U2OS cells treated with PMO, cisplatin followed by Go6976 (FIG. 5); format: cell-based; conditions: PMO 3 uM 2 h; for enhancement of sensitivity to cisplatin: Cis 5 uM 24 h
Protocol: FIG. 5 is a graph showing the results obtained with U2OS cells treated with PMO (3 uM, 2 h), Cis (5 uM, 24 h) followed by Go6976 (100 nM, 24 h).
as §1

| Compound | enhancement of drug sensitivity in the caspase 3 assay [2] | enhancement of sensitivity to cisplatin [3] | also measured |
| --- | --- | --- | --- |
| SEQ ID NO: 3: clusterin antisense oligo 5′-CAGCAGCAGAGTC TTCATCAT-3′, all phosphorothioate, terminal four nucleosides each end 2′-O-methyoxyethyl (CAGCAGCAGAGTCTTCATCAT; sugars from the 5' end e4 d13 e4, all phosphorothioate, methylation of C not given here) |  |  | sensitization of cancer cells to radiation and chemotherapeutic agents ([1]; cancer cells including prostate cancer cells): modestly sensitize some cancer cells; suppressive activity on clusterin expression [1]: relatively poor suppressive activity; effect on induction of apoptosis ([1]; some cancer cells, including those deficient in p21 (WAF-1) expression): can inhibit the induction of apoptosis in some cancer cells |
| PMO A: p53 morpholino (PMO) with sequence corresponding to Seq Id 136 (NU(4)p53); (RX)8B CPP used in in vitro testing (CCATGGCAGTGACCCGGAAGGC; all phosphorodiamidate morpholino (PMO); (RX)8B cell-penetrating peptide conjugated, position not given here) | 3 fold | about 3 fold |  |
| Cn1c2ccccc2c2c3c(c4c5ccccc5n(CCC#N)c4c21)CNC3=O [Go6976] |  |  | effect of Go6976 on the PMO enhancement of cisplatin sensitivity ([3]; Cis 5 uM 24 h followed by Go6976 100 nM 24 h): potentiates this enhancement |
| PMO B: p53 morpholino (PMO) with sequence corresponding to Seq Id 140 (NU(7)p53); (RX)8B CPP used in in vitro testing (GCATCAAATCATCCATTGCTTG; all phosphorodiamidate morpholino (PMO); (RX)8B cell-penetrating peptide conjugated, position not given here) | 3 fold | about 3 fold |  |
